Assay results taken from patent US20040014814A1, “Compositions and methods for delaying preventing rejuvenating or reversing senescence in cells” (priority 2000, published 2004).

Assays:
MRC-5 cells [1] = experiment: Effect of carnosine derivatives on cell growth / toxicity in MRC-5 cell cultures; assay type: cell-based, human; parameters: key to Effect on cell growth (score): (0) Toxic to cell growth; (10) Confluent cell growth; conditions: MRC-5 cells, scale 0 toxic to 10 confluent
Procedure: (§1) MRC -5 cells (fetal lung fibroblasts) were grown in Dulbecco's modification of Eagles' minimum essential medium (DMEM Gibco BRL Cat. No. 12800-017) containing 0.45% glucose, or MEM (Gibco BRL Cat. No. 612800-017) containing 0.1% glucose. Both media contained 10% fetal calf scrum (TRACE Biosciences Cat. No. 15-010-0500V) and Penicillin/Streptomycin 5000 IU, 5000 μg/ml (TRACE Biosciences Cat. No. 21-140-0100V). Cells were grown in […] flasks or in dishes (35 mm or 60 mm, Nunc) at 37° C. with 5% CO2. Cells were harvested with trypsin (TRACE Biosciences Cat. No. 21-163-0100V) and counted with a model ZF6 Coulter Counter. Cells were split in ratios of 1:2 or 1:4. Population doublings (PDs) were calculated from the ratio of the initial number of cells plated to the yield of cells after a period of time. This provides an accurate measure of cell growth, with the split ratios 1:2 and 1:4 corresponding to one and two passages respectively, which are broadly equivalent to population doublings. The media was changed every 5 days or when cells became confluent.
MRC-5 cells were used to observe the toxicity of a series of derivatives of carnosine on cell growth. Cell cultures were grown in DMEM media with 10% fetal calf serum and supplemented with the following carnosine analogues: carnosine ethyl ester, carnosine iso-propyl ester, carnosine n-butyl ester, carnosine n-hexyl ester, N-propyl carnosine, N-hexanoyl carnosine, N-trimethyl acetyl carnosine, N-acetyl carnosine methyl ester, N-acetyl carnosine ethyl ester and N-acetyl carnosine, […] Cells were also grown in DMEM supplemented with carnosine at 20 mM. […] Even at lower concentrations cell morphology was that of cells that have reached senescence i.e. broad flat cells with long process reaching out to other cells. Cell numbers were less than in the control flasks. […] As shown in FIG. 1 Acetyl-carnosine achieved a lifespan 5 PDs greater than the control and 6.7 PDs greater than carnosine over a 43 day period. […] In the early phase of the experiment growth rates were markedly greater than with the other compounds (FIG. 1).

MRC-5 cells [2] = experiment: Uptake of radio-labeled (3H) compounds by MRC-5 fibroblast cells; conditions: after 48 hours
Procedure: For MRC-5 cells, (3H)—carnosine and acetyl carnosine were added to the medium of near confluent 60mm culture dishes. At different time points cells were washed three times with phosphate buffered saline, cells harvested and cell-associated radioactivity determined using Packard Starscint scintillation fluid.
The rate of uptake of carnosine and acetyl-carnosine by MRC-5 cells was studied using radio-labeled tritiated (3H) carnosine and acetyl-carnosine compounds. The uptake was measured in MRC-5 cells at passage 28 over a 48 hour period (FIG. 3A).

non-enzymic glycation = experiment: Anti-glycation activity; assay type: biochemical
senescent MRC-5 cells = experiment: Rejuvenation of senescent MRC-5 cells (morphology); assay type: cell-based, human; conditions: media supplemented with the compound, FIG. 4
Procedure: as §1
It was shown above that acetyl-carnosine markedly delayed the onset of senescence by increasing the lifespan of MRC-5 cells in culture. This was confirmed by rejuvenation experiments (FIG. 4). The morphology of cells grown in media supplemented with acetyl-carnosine was distinct from the controls. […]

Uptake relative to carnosine on a per cell basis (MRC-5 cells [2]; MRC-5 cells): 35% | Uptake of (3H) compound by MRC-5 cells (MRC-5 cells [2]; cells at passage 28): 0.16%
SMILES: CC(=O)NCCC(=O)N[C@@H](Cc1cnc[nH]1)C(=O)O [N-acetyl carnosine]
Effect on cell growth (score) (MRC-5 cells [1]; 0.5 mM): 7 | Effect on cell growth (score) (MRC-5 cells [1]; 1 mM): 8 | Effect on cell growth (score) (MRC-5 cells [1]; 2 mM): 9 | Effect on cell growth (score) (MRC-5 cells [1]; 5 mM): 10 | Effect on cell growth (score) (MRC-5 cells [1]; 10 mM): 9 | Effect on cell growth (score) (MRC-5 cells [1]; 20 mM): 8 | Number of cells greater than with carnosine (MRC-5 cells [2]; MRC-5 cells): 42% | Number of cells growing in supplemented media (MRC-5 cells [2]; MRC-5 cells): 3.4×10^6 | Effectiveness as an antiglycation agent (non-enzymic glycation): ineffective | Morphology of cells in rejuvenation experiment (senescent MRC-5 cells): phenotype typical of younger cells
